Entries after “also recorded” stand apart in the source; their conditions may differ.
Key:
[1] = system: Notch inhibitor resistant (persister) T-ALL cell lines; experiment: Cell viability / proliferation (Celltiterglo luminescence); type: cell-based, human; settings: compared to naïve cells, viability read on day 6
Description: (§1) Notch inhibitor sensitive and resistant T-ALL cell lines were plated in 96 well plates and treated with vehicle, 1 uM GSI and/or increasing concentrations of the bet inhibitor JQ1. Cell viability was determined by measuring luminescence after Celltiterglo® (Promega) addition on day 6. Apoptosis was measured using Caspaseglo® (Promega) on day 4.

[2] = system: Notch inhibitor sensitive (naïve) T-ALL cell lines; experiment: as above; type: cell-based, human; settings: JQ1 concentrations that arrest persisters
Description: as §1

[3] = system: Notch inhibitor resistant T-ALL cell lines; experiment: Apoptosis (Caspaseglo); type: cell-based, human; settings: resistant leukemia cells compared to naïve; day 4
Description: as §1

[4] = system: Bcl-2 in GSI resistant leukemia cells; experiment: Bcl-2 protein level, Western blot (FIG. 9B); type: cell-based, human; settings: GSI resistant (persister) cells
[5] = system: Bcl-2 in naïve leukemia cells; experiment: Bcl-2 protein level, Western blot (FIG. 9B); type: cell-based, human; settings: naïve population
MYC in persister cells = experiment: MYC expression, Western blot (FIG. 17A); type: cell-based, human
Description: (§2) FIG. 17A is two photographs of western blots show MYC expression in naïve and persister cells after 3 day treatment with 2 μM AKT inhibitor, MK-2206, or 10 nM mTOR inhibitor, Rapamycin. FIG. 17B depicts graphs showing BRD4 binding at the MYC and BCL2 promoters.

MYC in naïve T-ALL cells = experiment: MYC expression, Western blot (FIG. 12B, 17A); type: cell-based, human
Description: as §2

[6] = Gastrointestinal toxicity, Periodic acid-Schiff (PAS) stain in Balb/c mice; type: in vivo, mouse; settings: JQ1 given in addition to DBZ
Description: Balb/c mice were treated with DBZ+JQ1, DBZ, or vehicle alone. Hyperproliferation of globlet cells was measured by Periodic acid-Schiff (PAS) stain.

[7] = system: Notch inhibitor sensitive T-ALL cell lines; experiment: Long-term culture of Notch inhibitor sensitive T-ALL cell lines with GSI (resistance modeling); type: cell-based, human
Description: Notch inhibitor sensitive T-ALL cell lines were cultured in the presence of 1 μM GSI in vitro. Cells were plated at 0.25×10^6/ml in 20 mL and split every 3-4 days. Cell viability, cell size and cell cycle were measured every 3-4 days. […] GSI-treated cells stopped proliferating between day 14 to 30 of culture, but eventually started proliferating again despite the presence of GSI with subsequent growth rates being equal or similar to untreated cells.

SMILES: Cc1sc2c(c1C)C(c1ccc(Cl)cc1)=N[C@@H](CC(=O)OC(C)(C)C)c1nnc(C)n1-2 (single isomer, unassigned) [JQ1 enantiomer]
- proliferation / survival of resistant (persister) leukemia cells [1]: no effect

SMILES: CN(C)CC[C@H](CSc1ccccc1)Nc1ccc(S(=O)(=O)NC(=O)c2ccc(N3CCN(Cc4ccccc4-c4ccc(Cl)cc4)CC3)cc2)cc1[N+](=O)[O-] [ABT-737]
- proliferation / survival of resistant (persister) leukemia cells [1]: effectively killed persister cells

SMILES: Cc1sc2c(c1C)C(c1ccc(Cl)cc1)=N[C@@H](CC(=O)OC(C)(C)C)c1nnc(C)n1-2 [JQ1]
- proliferation / survival of resistant (persister) leukemia cells [1]: decrease in proliferation; also recorded: proliferation arrest
- proliferation of naïve T-ALL cells [2]: well tolerated
- apoptosis [3]: increase in apoptosis
- Bcl-2 protein level / expression [4]: inhibited; also recorded: decreased level of Bcl-2 protein; also recorded: significantly reduced Bcl-2 expression
- Bcl-2 expression [5]: little effect
- MYC expression (MYC in persister cells): significantly reduced MYC expression
- MYC expression (MYC in naïve T-ALL cells): did not alter MYC
- intestinal villi architecture (PAS stain) [6]: largely ameliorated villi architecture

SMILES: C[C@H](NC(=O)Cc1cc(F)cc(F)c1)C(=O)N[C@H]1N=C(c2ccccc2)c2ccccc2N(C)C1=O [compound E]
- GSI concentration tolerated by persister cells relative to the IC50 [7]: more than 50 fold
